{
  "source": "patent US10213433B2",
  "about": "(AbbVie Inc., priority 2010, dated 2019)",
  "data": [
    {"target": "Bcl-2 protein (Homo sapiens (Human), UniProt P10415)", "sequence (P10415 whole entry)": "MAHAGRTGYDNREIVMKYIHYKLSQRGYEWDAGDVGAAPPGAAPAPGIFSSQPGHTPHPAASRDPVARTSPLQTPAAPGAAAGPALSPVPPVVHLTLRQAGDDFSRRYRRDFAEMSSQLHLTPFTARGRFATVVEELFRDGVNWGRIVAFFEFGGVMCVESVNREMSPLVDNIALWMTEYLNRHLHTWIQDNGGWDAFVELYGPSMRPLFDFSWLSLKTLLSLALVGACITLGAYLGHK", "assay": "Bcl-2 binding TR-FRET (Time-Resolved Fluorescence-Resonance-Energy-Transfer) assay", "details": "inhibition constant for binding to Bcl-2 protein", "source_text": "The smaller the Ki value, the greater is the binding affinity.", "units": {"Ki": "nM"}, "values": [
      {"smiles": "CC1(C)CCC(CN2CCN(c3ccc(C(=O)NS(=O)(=O)c4ccc(OCCOC5CCOC5)c([N+](=O)[O-])c4)c(Oc4cnc5[nH]ccc5c4)c3)CC2)=C(c2ccc(Cl)cc2)C1", "note": "(stereo not shown) [Compound 275, 4-(4-{[2-(4-chlorophenyl)-4,4-dimethylcyclohex-1-en-1-yl]methyl}piperazin-1-yl)-N-({3-nitro-4-[2-(tetrahydrofuran-3-yloxy)ethoxy]phenyl}sulfonyl)-2-(1H-pyrrolo[2,3-b]pyridin-5-yloxy)benzamide]", "Ki": "< 0.01"},
      {"smiles": "CC1(C)CCC(CN2CCN(c3ccc(C(=O)NS(=O)(=O)c4ccc(NCC5COCCN5C5CCOC5)c([N+](=O)[O-])c4)c(Oc4cnc5[nH]ccc5c4)c3)CC2)=C(c2ccc(Cl)cc2)C1", "note": "(stereo not shown) [Compound 171, 4-(4-{[2-(4-chlorophenyl)-4,4-dimethylcyclohex-1-en-1-yl]methyl}piperazin-1-yl)-N-[(3-nitro-4-{[(4-tetrahydrofuran-3-ylmorpholin-3-yl)methyl]amino}phenyl)sulfonyl]-2-(1H-pyrrolo[2,3-b]pyridin-5-yloxy)benzamide]", "Ki": "< 0.01"},
      {"smiles": "CCN(C)C(=O)N1CCOC(CNc2ccc(S(=O)(=O)NC(=O)c3ccc(N4CCN(CC5=C(c6ccc(Cl)cc6)CC(C)(C)CC5)CC4)cc3Oc3cnc4[nH]ccc4c3)cc2[N+](=O)[O-])C1", "note": "(stereo not shown) [Compound 318, 2-{[(4-{[4-(4-{[2-(4-chlorophenyl)-4,4-dimethylcyclohex-1-en-1-yl]methyl}piperazin-1-yl)-2-(1H-pyrrolo[2,3-b]pyridin-5-yloxy)benzoyl]sulfamoyl}-2-nitrophenyl)amino]methyl}-N-ethyl-N-methylmorpholine-4-carboxamide]", "Ki": "< 0.01"},
      {"smiles": "CC1(C)CCC(CN2CCN(c3ccc(C(=O)NS(=O)(=O)c4ccc(N[C@H]5CCN(CC(F)F)C5)c([N+](=O)[O-])c4)c(Oc4cnc5[nH]ccc5c4)c3)CC2)=C(c2ccc(Cl)cc2)C1", "note": "[Compound 182, 4-(4-{[2-(4-chlorophenyl)-4,4-dimethylcyclohex-1-en-1-yl]methyl}piperazin-1-yl)-N-[(4-{[(3S)-1-(2,2-difluoroethyl)pyrrolidin-3-yl]amino}-3-nitrophenyl)sulfonyll]-2-(1H-pyrrolo[2,3-b]pyridin-5-yloxy)benzamide]", "Ki": 0.068},
      {"smiles": "COC1(C)CCC(c2ccc(Cl)cc2)=C(CN2CCN(c3ccc(C(=O)NS(=O)(=O)c4ccc(NC[C@H]5CC[C@@](C)(O)CC5)c([N+](=O)[O-])c4)c(Oc4cnc5[nH]ccc5c4)c3)CC2)C1", "note": "(stereo partly drawn) [Compound 377, 4-(4-{[2-(4-chlorophenyl)-5-methoxy-5-methylcyclohex-1-en-1-yl]methyl}piperazin-1-yl)-N-[(4-{[(trans-4-hydroxy-4-methylcyclohexyl)methyl]amino}-3-nitrophenyl)sulfonyl]-2-(1H-pyrrolo[2,3-b]pyridin-5-yloxy)benzamide]", "Ki": "< 0.001"},
      {"smiles": "COc1ccc(CNc2ccc(S(=O)(=O)NC(=O)c3ccc(N4CCN(CC5=C(c6ccc(Cl)cc6)CC(C)(C)CC5)CC4)cc3Oc3cnc4[nH]ccc4c3)cc2[N+](=O)[O-])cc1", "note": "[Compound 174, 4-(4-{[2-(4-chlorophenyl)-4,4-dimethylcyclohex-1-en-1-yl]methyl}piperazin-1-yl)-N-({4-[(4-methoxybenzyl)amino]-3-nitrophenyl}sulfonyl)-2-(1H-pyrrolo[2,3-b]pyridin-5-yloxy)benzamide]", "Ki": "< 0.01"},
      {"smiles": "COCCOCCN1CCOC(CNc2ccc(S(=O)(=O)NC(=O)c3ccc(N4CCN(CC5=C(c6ccc(Cl)cc6)CC(C)(C)CC5)CC4)cc3Oc3cnc4[nH]ccc4c3)cc2[N+](=O)[O-])C1", "note": "(stereo not shown) [Compound 213, 4-(4-{[2-(4-chlorophenyl)-4,4-dimethylcyclohex-1-en-1-yl]methyl}piperazin-1-yl)-N-({4-[({4-[2-(2-methoxyethoxyl)ethyl]morpholin-2-yl}methyl)amino]-3-nitrophenyl}sulfonyl)-2-(1H-pyrrolo[2,3-b]pyridin-5-yloxy)benzamide]", "Ki": "< 0.01"},
      {"smiles": "CC1(C)CCC(CN2CCN(c3ccc(C(=O)NS(=O)(=O)c4ccc(NC[C@H]5CCN(C6CCOCC6)C5)c([N+](=O)[O-])c4)c(Oc4cnc5[nH]ccc5c4)c3)CC2)=C(c2ccc(Cl)cc2)C1", "note": "[Compound 118, 4-(4-{[2-(4-chlorophenyl)-4,4-dimethylcyclohex-1-en-1-yl]methyl}piperazin-1-yl)-N-{[3-nitro-4-({[(3R)-1-tetrahydro-2H-pyran-4-ylpyrrolidin-3-yl]methyl}amino)phenyl]sulfonyl}-2-(1H-pyrrolo[2,3-b]pyridin-5-yloxy)benzamide]", "Ki": "< 0.01"},
      {"smiles": "O=C(NS(=O)(=O)c1ccc(NCC2CCOCC2)c([N+](=O)[O-])c1)c1ccc(N2CCN(CC3=C(c4ccc(Cl)cc4)CC4(CC3)CC4)CC2)cc1Oc1cnc2[nH]ccc2c1", "note": "[Compound 328, 4-(4-{[5-(4-chlorophenyl)spiro[2.5]oct-5-en-6-yl]methyl}piperazin-1-yl)-N-({3-nitro-4-[(tetrahydro-2H-pyran-4-ylmethyl)amino]phenyl}sulfonyl)-2-(1H-pyrrolo[2,3-b]pyridin-5-yloxy)benzamide]", "Ki": "< 0.01"},
      {"smiles": "CN(C)CC(=O)N1CCC(F)(COc2ncc(S(=O)(=O)NC(=O)c3ccc(N4CCN(CC5=C(c6ccc(Cl)cc6)CC(C)(C)CC5)CC4)cc3Oc3cnc4[nH]ccc4c3)cc2Cl)CC1", "note": "[Compound 270, N-[(5-chloro-6-{[1-(N,N-dimethylglycyl)-4-fluoropiperidin-4-yl]methoxy}pyridin-3-yl)sulfonyl]-4-(4-{[2-(4-chlorophenyl)-4,4-dimethylcyclohex-1-en-1-yl]methyl}piperazin-1-yl)-2-(1H-pyrrolo[2,3-b]pyridin-5-yloxy)benzamide]", "Ki": "< 0.01"},
      {"smiles": "CC1(C)CC(c2ccc(Cl)cc2)=C(CN2CCN(c3ccc(C(=O)NS(=O)(=O)c4ccc(OCC5COCCO5)c([N+](=O)[O-])c4)c(Oc4cnc5[nH]ccc5c4)c3)CC2)CO1", "note": "(stereo not shown) [Compound 32, 4-(4-{[4-(4-chlorophenyl)-6,6-dimethyl-5,6-dihydro-2H-pyran-3-yl]methyl}piperazin-1-yl)-N-{[4-(1,4-dioxan-2-ylmethoxy)-3-nitrophenyl]sulfonyl}-2-(1H-pyrrolo[2,3-b]pyridin-5-yloxy)benzamide]", "Ki": "< 0.01"},
      {"smiles": "CN1CCN(Nc2ccc(S(=O)(=O)NC(=O)c3ccc(N4CCN(CC5=C(c6ccc(Cl)cc6)CC(C)(C)OC5)CC4)cc3Oc3cnc4[nH]ccc4c3)cc2[N+](=O)[O-])CC1", "note": "[Compound 67, 4-(4-{[4-(4-chlorophenyl)-6,6-dimethyl-5,6-dihydro-2H-pyran-3-yl]methyl}piperazin-1-yl)-N-({4-[(4-methylpiperazin-1-yl)amino]-3-nitrophenyl}sulfonyl)-2-(1H-pyrrolo[2,3-b]pyridin-5-yloxy)benzamide]", "Ki": "< 0.01"},
      {"smiles": "CC1(C)CCC(CN2CCN(c3ccc(C(=O)NS(=O)(=O)c4ccc(NCCCN5CCOCC5)c([N+](=O)[O-])c4)c(Oc4cnc5[nH]ccc5c4)c3)CC2)=C(c2ccc(Cl)cc2)C1", "note": "[Compound 55, 4-(4-{[2-(4-chlorophenyl)-4,4-dimethylcyclohex-1-en-1-yl]methyl}piperazin-1-yl)-N-({4-[(3-morpholin-4-ylpropyl)amino]-3-nitrophenyl}sulfonyl)-2-(1H-pyrrolo[2,3-b]pyridin-5-yloxy)benzamide]", "Ki": "< 0.01"},
      {"smiles": "CC1(C)CCC(CN2CCN(c3ccc(C(=O)NS(=O)(=O)c4ccc(NC5CCN(C6CC6)CC5)c([N+](=O)[O-])c4)c(Oc4cnc5[nH]ccc5c4)c3)CC2)=C(c2ccc(Cl)cc2)C1", "note": "[Compound 98, 4-(4-{[2-(4-chlorophenyl)-4,4-dimethylcyclohex-1-en-1-yl]methyl}piperazin-1-yl)-N-({4-[(1-cyclopropylpiperidin-4-yl)amino]-3-nitrophenyl}sulfonyl)-2-(1H-pyrrolo[2,3-b]pyridin-5-yloxy)benzamide]", "Ki": "< 0.01"},
      {"smiles": "CC1(C)CC(c2ccc(Cl)cc2)=C(CN2CCN(c3ccc(C(=O)NS(=O)(=O)c4ccc(NCC5COCCO5)c([N+](=O)[O-])c4)c(Oc4cnc5[nH]ccc5c4)c3)CC2)CO1", "note": "(stereo not shown) [Compound 31, 4-(4-{[4-(4-chlorophenyl)-6,6-dimethyl-5,6-dihydro-2H-pyran-3-yl]methyl}piperazin-1-yl)-N-({4-[(1,4-dioxan-2-ylmethyl)amino]-3-nitrophenyl}sulfonyl)-2-(1H-pyrrolo[2,3-b]pyridin-5-yloxy)benzamide]", "Ki": "< 0.01"},
      {"smiles": "CC1(C)CCC(CN2CCN(c3ccc(C(=O)NS(=O)(=O)c4ccc(OC[C@@H]5COCCO5)c([N+](=O)[O-])c4)c(Oc4cnc5[nH]ccc5c4)c3)CC2)=C(c2ccc(Cl)cc2)C1", "note": "[Compound 28, 4-(4-{[2-(4-chlorophenyl)-4,4-dimethylcyclohex-1-en-1-yl]methyl}piperazin-1-yl)-N-({4-[(2S)-1,4-dioxan-2-ylmethoxy]-3-nitrophenyl}sulfonyl)-2-(1H-pyrrolo[2,3-b]pyridin-5-yloxy)benzamide]", "Ki": "< 0.01"}
    ]},
    {"tested_on": "not listed separately", "assay": "log D at pH 7.4 by an HPLC method", "type": "physicochemical", "details": "not given", "source_text": "Table 2 below presents data for log D (a parameter related to lipophilicity) at pH 7.4, as determined by an HPLC method, for representative compounds.", "values": [
      {"smiles": "CN1CCN(Nc2ccc(S(=O)(=O)NC(=O)c3ccc(N4CCN(CC5=C(c6ccc(Cl)cc6)CC(C)(C)CC5)CC4)cc3Oc3cnc4[nH]ccc4c3)cc2[N+](=O)[O-])CC1", "note": "[Compound 6, 4-(4-{[2-(4-chlorophenyl)-4,4-dimethylcyclohex-1-en-1-yl]methyl}piperazin-1-yl)-N-({4-[(4-methylpiperazin-1-yl)amino]-3-nitrophenyl}sulfonyl)-2-(1H-pyrrolo[2,3-b]pyridin-5-yloxy)benzamide]", "chromatographic logD": 5.74},
      {"smiles": "CC1(C)CCC(CN2CCN(c3ccc(C(=O)NS(=O)(=O)c4ccc(NCC5CCOCC5)c([N+](=O)[O-])c4)c(Oc4cnc5[nH]ccc5c4)c3)CC2)=C(c2ccc(Cl)cc2)C1", "note": "[Compound 5, 4-(4-{[2-(4-chlorophenyl)-4,4-dimethylcyclohex-1-en-1-yl]methyl}piperazin-1-yl)-N-({3-nitro-4-[(tetrahydro-2H-pyran-4-ylmethyl)amino]phenyl}sulfonyl)-2-(1H-pyrrolo[2,3-b]pyridin-5-yloxy)benzamide]", "chromatographic logD": 5.37},
      {"smiles": "CC1(C)CCC(CN2CCN(c3ccc(C(=O)NS(=O)(=O)c4ccc(OCC5COCCO5)c([N+](=O)[O-])c4)c(Oc4ccc5[nH]ccc5c4)c3)CC2)=C(c2ccc(Cl)cc2)C1", "note": "(stereo not shown) [Compound 92, 4-(4-{[2-(4-chlorophenyl)-4,4-dimethylcyclohex-1-en-1-yl]methyl}piperazin-1-yl)-N-{[4-(1,4-dioxan-2-ylmethoxy)-3-nitrophenyl]sulfonyl}-2-(1H-indol-5-yloxy)benzamide]", "chromatographic logD": 5.6}
    ]}
  ]
}
